Patent US20230077362A1 (CORTEVA AGRISCIENCE LLC, priority 2019, published 2023)
Like-named read-outs stand apart in the source and are kept apart here.

What was measured:
[1] = tested on: Cabbage Looper (Trichoplusia ni) ("CL"), second instar larvae; experiment: Bioassay on cabbage looper (CL), 128-well diet tray assay; type: in vivo; details: for CL rating: C = not tested, D = no activity noticed
Description: (§1) Certain molecules disclosed in this document were tested against BAW and CL using procedures described in the following examples. In the reporting of the results, the “BAW & CL Rating Table” was used (See Table Section).
(§2) Trays were covered with a clear self-adhesive cover and held at 25° C., 14:10 light-dark cycle for five to seven days. Percent mortality was recorded for the larvae in each well; activity in the eight wells was then averaged. The results are indicated in the table entitled “Table ABC: Biological Results” (See Table Section).

[2] = tested on: Beet Armyworm (Spodoptera exigua) ("BAW"), second instar larvae; experiment: Bioassay on beet armyworm (BAW), 128-well diet tray assay; type: in vivo; details: for pest or weed control at 50 µg/cm2: Spodoptera exigua; for BAW rating: C = not tested, D = no activity noticed
Description: as §1, §2

[3] = Trichoplusia ni, read-out: CL rating
[4] = Trichoplusia ni, read-out: CL (Biological Results, rating)
[5] = read-out: BAW (Biological Results, rating)

Row | SMILES | pest or weed control at 50 µg/cm2 [1, 3] | pest or weed control at 50 µg/cm2 ([2]; read-out: BAW rating) | pest or weed control at 50 µg/cm2 [1, 4] | pest or weed control at 50 µg/cm2 [2, 5] | also measured
1 | Cc1ccc(COCCC(F)(F)F)c(N2C(=O)CS/C2=N\C(=O)Nc2ccc(-c3ncn(-c4ccccc4)n3)cc2F)c1 [Compound J779, (Z)-1-(2-Fluoro-4-(1-phenyl-1H-1,2,4-triazol-3-yl)phenyl)-3-(3-(5-methyl-2-((3,3,3-trifluoropropoxy)methyl)phenyl)-4-oxothiazolidin-2-ylidene)urea] | 50 to 100% | 50 to 100% | – | – | –
2 | COc1ccc(-n2cnc(-c3ccc(NC(=O)/N=C4\SCC(=O)N4c4cc(C)ccc4C(C)C)c(F)c3)n2)cc1 [Compound J144, (Z)-1-(2-Fluoro-4-(1-(4-methoxyphenyl)-1H-1,2,4-triazol-3-yl)phenyl)-3-(3-(2-isopropyl-5-methylphenyl)-4-oxothiazolidin-2-ylidene)urea] | – | – | 50 to 100% | 50 to 100% | –
3 | Cc1ccc(C(C)C)c(N2C(=O)CS/C2=N\C(=O)Nc2ccc(-c3cn(-c4ccc(C(F)(F)F)cc4)cn3)cc2C)c1 [Compound J523, (Z)-1-(3-(2-Isopropyl-5-methylphenyl)-4-oxothiazolidin-2-ylidene)-3-(2-methyl-4-(1-(4-(trifluoromethyl)phenyl)-1H-imidazol-4-yl)phenyl)urea] | 50 to 100% | 50 to 100% | – | – | –
4 | COCc1ccc(N(C)C)cc1N1C(=O)CS/C1=N\C(=O)Nc1ccc(-c2cn(-c3ccc(OC(F)(F)F)cc3)nn2)cc1 [Compound J496, (Z)-1-(3-(5-(Dimethylamino)-2-(methoxymethyl)phenyl)-4-oxothiazolidin-2-ylidene)-3-(4-(1-(4-(trifluoromethoxy)phenyl)-1H-1,2,3-triazol-4-yl)phenyl)urea] | 50 to 100% | 50 to 100% | – | – | –
5 | Cc1ccc(C(C)C)c(N2C(=O)CS/C2=N\C(=O)Nc2ccc(-c3cn(-c4ccc(S(F)(F)(F)(F)F)cc4)cn3)cc2F)c1 [Compound J589, (Z)-1-(2-fluoro-4-(1-(4-(pentafluoro-λ^6-sulfaneyl)phenyl)-1H-imidazol-4-yl)phenyl)-3-(3-(2-isopropyl-5-methylphenyl)-4-oxothiazolidin-2-ylidene)urea] | 50 to 100% | 50 to 100% | – | – | –
6 | Cc1ccc(COCCC(F)(F)F)c(N2C(=O)CS/C2=N\C(=O)Nc2ccc(-c3ncn(-c4ccc(OC(F)(F)F)cc4)n3)cc2F)c1 [Compound J543] | – | – | – | – | CL rating ([1]; Table ABC, species CL): A (50-100); BAW rating ([2]; Table ABC, species BAW): A (50-100)
7 | COCc1ccc(C)cc1N1C(=O)CS/C1=N\C(=O)Nc1ccc(-c2nnc(-c3ccc(OC(F)(F)F)cc3)o2)cc1F [Compound J609, (Z)-1-(2-Fluoro-4-(5-(4-(trifluoromethoxy)phenyl)-1,3,4-oxadiazol-2-yl)phenyl)-3-(3-(2-(methoxymethyl)-5-methylphenyl)-4-oxothiazolidin-2-ylidene)urea] | 50 to 100% | 50 to 100% | – | – | –
8 | COC(C)c1ccc(C)cc1N1C(=O)CS/C1=N\C(=O)Nc1ccc(-c2noc(-c3ccc(OC(F)(F)F)cc3)n2)cc1F (centres unmarked) [Compound J426, (Z)-1-(2-Fluoro-4-(5-(4-(trifluoromethoxy)phenyl)-1,2,4-oxadiazol-3-yl)phenyl)-3-(3-(2-(1-methoxyethyl)-5-methylphenyl)-4-oxothiazolidin-2-ylidene)urea] | 50 to 100% | 50 to 100% | – | – | –
9 | Cc1ccc(COCc2cccc(F)c2)c(N2C(=O)CS/C2=N\C(=O)Nc2ccc(-c3ncn(-c4ccc(OC(F)(F)F)cc4)n3)cc2F)c1 [Compound J568, (Z)-1-(2-fluoro-4-(1-(4-(trifluoromethoxy)phenyl)-1H-1,2,4-triazol-3-yl)phenyl)-3-(3-(2-(((3-fluorobenzyl)oxy)methyl)-5-methylphenyl)-4-oxothiazolidin-2-ylidene)urea] | 50 to 100% | 50 to 100% | – | – | –
10 | CCOCc1ccc(C)cc1N1C(=O)CS/C1=N\C(=O)Nc1ccc(-c2ncn(-c3ccc(SC(F)(F)F)cc3)n2)cc1F [Compound J195, (Z)-1-(3-(2-(Ethoxymethyl)-5-methylphenyl)-4-oxothiazolidin-2-ylidene)-3-(2-fluoro-4-(1-(4-((trifluoromethyl)thio)phenyl)-1H-1,2,4-triazol-3-yl)phenyl)urea] | – | – | 50 to 100% | 50 to 100% | –
11 | Cc1ccc(COCC(F)(F)F)c(N2C(=O)CS/C2=N\C(=O)Nc2ccc(-c3ncn(-c4ccc(OC(F)(F)F)cn4)n3)cc2C(F)(F)F)c1 [Compound J274, (Z)-1-(3-(5-Methyl-2-((2,2,2-trifluoroethoxy)methyl)phenyl)-4-oxothiazolidin-2-ylidene)-3-(4-(1-(5-(trifluoromethoxy)pyridin-2-yl)-1H-1,2,4-triazol-3-yl)-2-(trifluoromethyl)phenyl)urea] | – | – | 50 to 100% | 50 to 100% | –
12 | CCOCc1ccc(C)cc1N1C(=O)CS/C1=N\C(=O)Nc1ccc(-c2ncn(-c3ccc(C(F)(F)C(F)(F)F)cc3)n2)cc1C [Compound J796, (Z)-1-(3-(2-(Ethoxymethyl)-5-methylphenyl)-4-oxothiazolidin-2-ylidene)-3-(2-methyl-4-(1-(4-(perfluoroethyl)phenyl)-1H-1,2,4-triazol-3-yl)phenyl)urea] | – | – | – | – | mortality at 50 µg/cm2 ([1]; Trichoplusia ni, Table ABC, species CL, 128-well diet tray assay, second instar larvae, read-out: CL rating (% control or mortality class)): 50 to 100%; BAW rating (% control or mortality class) ([2]; Table ABC, species BAW, 128-well diet tray assay, second instar larvae): A (50-100)
13 | Cc1ccc(OCCC(F)(F)F)c(N2C(=O)CS/C2=N\C(=O)Nc2ccc(-c3ncn(-c4ccc(S(F)(F)(F)(F)F)cc4)n3)cc2C#N)c1 [Compound J584, (Z)-1-(2-Cyano-4-(1-(4-(pentafluoro-λ^6-sulfaneyl)phenyl)-1H-1,2,4-triazol-3-yl)phenyl)-3-(3-(5-methyl-2-(3,3,3-trifluoropropoxy)phenyl)-4-oxothiazolidin-2-ylidene)urea] | 50 to 100% | 50 to 100% | – | – | –
14 | Cc1ccc(COCC(Cl)Cl)c(N2C(=O)CS/C2=N\C(=O)Nc2ccc(-c3ncn(-c4ccc(C(F)(F)F)cc4)n3)cc2F)c1 [Compound J559] | – | – | – | – | CL rating ([1]; Table ABC, species CL): A (50-100); BAW rating ([2]; Table ABC, species BAW): A (50-100)
15 | Cc1ccc(OCCC(F)(F)F)c(N2C(=O)CS/C2=N\C(=O)Nc2ccc(-c3ncn(-c4ccc(C(F)(F)F)cc4)n3)cc2F)c1 [Compound J64, (Z)-1-(2-Fluoro-4-(1-(4-(trifluoromethyl)phenyl)-1H-1,2,4-triazol-3-yl)phenyl)-3-(3-(5-methyl-2-(3,3,3-trifluoropropoxy)phenyl)-4-oxothiazolidin-2-ylidene)urea] | – | – | 50 to 100% | 50 to 100% | –
16 | COc1ccc(C(C)C)c(N2C(=O)CS/C2=N\C(=O)Nc2ccc(-c3ncn(-c4ccc(C(F)(F)F)cn4)n3)cc2F)c1 [Compound J283, (Z)-1-(2-fluoro-4-(1-(5-(trifluoromethyl)pyridin-2-yl)-1H-1,2,4-triazol-3-yl)phenyl)-3-(3-(2-isopropyl-5-methoxyphenyl)-4-oxothiazolidin-2-ylidene)urea] | – | – | 50 to 100% | 50 to 100% | –
17 | CC(C)c1ccc(N(C)C)cc1N1C(=O)CS/C1=N\C(=O)Nc1ccc(-c2ncn(-c3ccc(S(F)(F)(F)(F)F)cc3)n2)cc1C(F)(F)F [Compound J630, (Z)-1-(3-(5-(Dimethylamino)-2-isopropylphenyl)-4-oxothiazolidin-2-ylidene)-3-(4-(1-(4-(pentafluoro-λ^6-sulfaneyl)phenyl)-1H-1,2,4-triazol-3-yl)-2-(trifluoromethyl)phenyl)urea] | 50 to 100% | 50 to 100% | – | – | –
18 | Cc1ccc(COCC(F)(F)F)c(N2C(=O)CS/C2=N\C(=O)Nc2ccc(-c3cn(-c4ccc(S(F)(F)(F)(F)F)cc4)cn3)cc2F)c1 [Compound J598, (Z)-1-(2-Fluoro-4-(1-(4-(pentafluoro-λ^6-sulfaneyl)phenyl)-1H-imidazol-4-yl)phenyl)-3-(3-(5-methyl-2-((2,2,2-trifluoroethoxy)methyl)phenyl)-4-oxothiazolidin-2-ylidene)urea] | 50 to 100% | 50 to 100% | – | – | –
19 | CCOc1ccc(-n2cnc(-c3ccc(NC(=O)/N=C4\SCC(=O)N4c4cc(C)c(C)cc4COCC(F)(F)F)c(F)c3)n2)cc1 [Compound J620] | – | – | – | – | CL rating ([1]; Table ABC, species CL): A (50-100); BAW rating ([2]; Table ABC, species BAW): A (50-100)
20 | CN(C)c1ccc(OCC(F)(F)F)c(N2C(=O)CS/C2=N\C(=O)Nc2ccc(-c3ncn(-c4ccc(OC(F)(F)F)cn4)n3)cc2F)c1 [Compound J263, (Z)-1-(3-(5-(Dimethylamino)-2-(2,2,2-trifluoroethoxy)phenyl)-4-oxothiazolidin-2-ylidene)-3-(2-fluoro-4-(1-(5-(trifluoromethoxy)pyridin-2-yl)-1H-1,2,4-triazol-3-yl)phenyl)urea] | – | – | 50 to 100% | 50 to 100% | –
21 | CCOCc1ccc(C)cc1N1C(=O)CS/C1=N\C(=O)Nc1ccc(-c2ncn(-c3ccc(OC(F)(F)F)cc3)n2)cc1C(F)F [Compound J214, (Z)-1-(2-(Difluoromethyl)-4-(1-(4-(trifluoromethoxy)phenyl)-1H-1,2,4-triazol-3-yl)phenyl)-3-(3-(2-(ethoxymethyl)-5-methylphenyl)-4-oxothiazolidin-2-ylidene)urea] | – | – | 50 to 100% | 50 to 100% | –
22 | Cc1ccc(N2C(=O)CS/C2=N\C(=O)Nc2ccc(-c3ncn(-c4ccc(C(F)(F)F)cn4)n3)cc2F)c(COCC(F)(F)F)c1 [Compound J451] | – | – | – | – | CL rating ([1]; Table ABC, species CL): A (50-100); BAW rating ([2]; Table ABC, species BAW): A (50-100)
